Legend:
[1] = test system: WT Eco riboswitch 36-mer, biotinylated (RNA, riboswitch) AUUGGGUUCCCUCACCCCAAUGGUUAAUCAAAAAGG; experiment: SPR kinetics (1:1 fit); conditions: Na+ 100 mM, Mg2+ 3 mM; 10 mM Na-HEPES pH 7.5, 25 °C; apparent
[2] = test system: U7C (RNA, riboswitch) AUUGGGCUCCCUCACCCCAAUGGUUAAUCAAAAAGG; experiment: SPR steady state (one-site fit); conditions: Na+ 100 mM, Mg2+ 3 mM; 10 mM Na-HEPES pH 7.5, 25 °C; preQ1 9.7 to 10,000 μM; text gives 4.2 ± 0.3 mM
[3] = test system: Eco 30-mer (crystal construct) (RNA, riboswitch) UUGGGUUCCCUCACCCCAAUCAUAAAAAGG; experiment: X-ray crystallography (2.30 Å, Mn2+ SAD); conditions: Mn2+ 5 mM, K+ 100 mM, Mg2+ 2 mM (well solution); Na-cacodylate pH 6.0, spermine, MPD, 20 °C
[4] = test system: WT Eco riboswitch 36-mer (RNA, riboswitch) AUUGGGUUCCCUCACCCCAAUGGUUAAUCAAAAAGG; experiment: ITC; conditions: 10 μM RNA in cell, 100 μM preQ1 in syringe; buffer as in cited work
[5] = test system: Eco 34-mer (linker ΔGG) (RNA, riboswitch) AUUGGGUUCCCUCACCCCAAUUUAAUCAAAAAGG; experiment: ITC; conditions: 10 μM RNA in cell, 100 μM preQ1 in syringe; buffer as in cited work
[6] = test system: G6DAP/C16U (RNA, riboswitch, 2,6-diaminopurine at 6) AUUGGGUUCCCUCACUCCAAUGGUUAAUCAAAAAGG; experiment: SPR steady state (one-site fit); conditions: Na+ 100 mM, Mg2+ 3 mM; 10 mM Na-HEPES pH 7.5, 25 °C; preQ1 1.25 to 200 μM
[7] = test system: Eco 33-mer (linker ΔGGU) (RNA, riboswitch) AUUGGGUUCCCUCACCCCAAUUAAUCAAAAAGG; experiment: ITC; conditions: 10 μM RNA in cell, 100 μM preQ1 in syringe; buffer as in cited work
[8] = test system: Eco 30-mer (crystal construct) (RNA, riboswitch) UUGGGUUCCCUCACCCCAAUCAUAAAAAGG; experiment: ITC; conditions: 10 μM RNA in cell, 100 μM preQ1 in syringe; buffer as in cited work
[9] = test system: C15U (RNA, riboswitch) AUUGGGUUCCCUCAUCCCAAUGGUUAAUCAAAAAGG; experiment: SPR steady state (one-site fit); conditions: Na+ 100 mM, Mg2+ 3 mM; 10 mM Na-HEPES pH 7.5, 25 °C; preQ1 9.7 to 10,000 μM
[10] = test system: Eco 35-mer (linker ΔG) (RNA, riboswitch) AUUGGGUUCCCUCACCCCAAUGUUAAUCAAAAAGG; experiment: ITC; conditions: 10 μM RNA in cell, 100 μM preQ1 in syringe; buffer as in cited work

KD [1]	KD [2]	binding [3]	KD [4] [nM]	KD [5] [nM]	KD [6]	KD [7] [nM]	KD [8] [nM]	KD [9]	KD [10] [nM]	SMILES
15,970 ± 2260 nM	–	–	–	–	–	–	–	–	–	N#Cc1c[nH]c2nc(N)[nH]c(=O)c12
120 ± 6 nM	4,220,000 ± 33,000 nM	yes	57.9 ± 1.5	14.0 ± 1.6	77,390 ± 5880 nM	30.2 ± 1.3	51.9 ± 1.8	7,682,000 ± 206,000 nM	33.4 ± 1.9	NCc1c[nH]c2nc(N)[nH]c(=O)c12
